Data on 18 molecules can be found in PubChem BioAssay (NCI).

Test systems include EKVX NSCLC; HOP-92 NSCLC; HT29 colon; LOX IMVI melanoma; MALME-3M melanoma; OVCAR-8 ovarian; RPMI-8226 leukemia; SF-539 CNS; SN12C renal; UACC-257 melanoma.
Common to all, as to test: NCI-60 cell line screen, 48 h

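Test compounds were applied to cells in 96-well plates for 48 hours at 5 doses. Abbreviation: GI50, concentration required for 50% inhibition of growth. TGI marks complete inhibition of growth.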

Take `O=C(/C=C/OC(=O)c1cccc(Cl)c1)c1ccc(Cl)cc1`: the GI50 was > 100 µM in the experiment on EKVX NSCLC; 33.5 µM with HOP-92 NSCLC; 50 µM with HT29 colon; 36.5 µM with LOX IMVI melanoma; 2.32 µM in the experiment with MALME-3M melanoma; 46.4 µM with OVCAR-8 ovarian. Besides, the GI50 in the experiment on RPMI-8226 leukemia is 30.5 µM; in the experiment on SF-539 CNS, 23.1 µM; with SN12C renal, 28.5 µM; in the experiment on UACC-257 melanoma, 97.6 µM. Also, the TGI with EKVX NSCLC was > 100 µM; in the experiment with HOP-92 NSCLC, > 100 µM; in the experiment with HT29 colon, > 100 µM; in the experiment on LOX IMVI melanoma, > 100 µM; in the experiment with MALME-3M melanoma, 39 µM; with OVCAR-8 ovarian it was > 100 µM. Besides, the TGI in the experiment on RPMI-8226 leukemia was > 100 µM; in the experiment on SF-539 CNS, 55.2 µM; with SN12C renal it was > 100 µM; in the experiment with UACC-257 melanoma, > 100 µM.
Turning to `CCn1ccc(NS(=O)(=O)c2ccc(N)cc2)nc1=O`, the GI50 in the experiment with EKVX NSCLC, with HOP-92 NSCLC, with HT29 colon, with LOX IMVI melanoma, with MALME-3M melanoma and in the experiment with OVCAR-8 ovarian was > 100 µM each time. Besides, the GI50 in the experiment on RPMI-8226 leukemia, in the experiment on SF-539 CNS, in the experiment with SN12C renal and in the experiment with UACC-257 melanoma was > 100 µM throughout. Also, the TGI in the experiment on EKVX NSCLC, in the experiment on HOP-92 NSCLC, in the experiment with HT29 colon, in the experiment with LOX IMVI melanoma, in the experiment on MALME-3M melanoma and in the experiment on OVCAR-8 ovarian was > 100 µM in each case. In addition, the TGI with RPMI-8226 leukemia, in the experiment with SF-539 CNS, in the experiment with SN12C renal and in the experiment on UACC-257 melanoma was > 100 µM in each case.
For `CN(C)c1ccc2nc(CC(O)(C(F)(F)F)C(F)(F)F)ccc2c1`, the TGI with EKVX NSCLC, with HOP-92 NSCLC, with HT29 colon, in the experiment with LOX IMVI melanoma, in the experiment on MALME-3M melanoma and with OVCAR-8 ovarian was > 10 µM each time. In addition, the TGI in the experiment on RPMI-8226 leukemia, in the experiment with SF-539 CNS, in the experiment with SN12C renal and in the experiment on UACC-257 melanoma was > 10 µM throughout.
Take `Nc1ccc(Sc2c3ccccc3nc3ccccc23)cc1`: the TGI was 58.9 µM in the experiment with EKVX NSCLC; > 38 µM in the experiment with HOP-92 NSCLC; 32 µM with HT29 colon; 13.9 µM in the experiment on LOX IMVI melanoma; 36.2 µM with MALME-3M melanoma; 28.6 µM with OVCAR-8 ovarian. Besides, the TGI in the experiment on RPMI-8226 leukemia stood at 17.4 µM; in the experiment on SF-539 CNS, 31 µM; in the experiment with SN12C renal it was 36.1 µM; in the experiment on UACC-257 melanoma it was 33.1 µM.
Regarding `CN(C)CCNC(=O)NC[C@H]1CC[C@@H]2[C@H](O1)c1cc(C(F)(F)F)ccc1N[C@H]2c1ccccc1`, the GI50 in the experiment on EKVX NSCLC is 11.1 µM; in the experiment on HOP-92 NSCLC, 1.25 µM; with HT29 colon it was 0.303 µM; with LOX IMVI melanoma, 2.53 µM; in the experiment on MALME-3M melanoma it was 0.582 µM; in the experiment on OVCAR-8 ovarian, 0.233 µM. The GI50 in the experiment on RPMI-8226 leukemia was 0.163 µM; in the experiment on SF-539 CNS, 0.187 µM; in the experiment on SN12C renal, 0.455 µM; in the experiment on UACC-257 melanoma it was 10.5 µM. Further, the TGI was > 100 µM in the experiment with EKVX NSCLC; 29 µM in the experiment on HOP-92 NSCLC; 11.2 µM with HT29 colon; 27.3 µM in the experiment on LOX IMVI melanoma; 22.4 µM in the experiment with MALME-3M melanoma; > 100 µM with OVCAR-8 ovarian. Further, the TGI in the experiment with RPMI-8226 leukemia was 8.48 µM; in the experiment on SF-539 CNS it was 8.31 µM; in the experiment with SN12C renal, > 51.7 µM; in the experiment with UACC-257 melanoma, 23.9 µM.
`CCOC(=O)c1cccnc1C(OC(C)=O)OC(C)=O`: the TGI with EKVX NSCLC, in the experiment on HOP-92 NSCLC, with HT29 colon, in the experiment with LOX IMVI melanoma, with MALME-3M melanoma and in the experiment with OVCAR-8 ovarian was > 100 µM in each case. Further, the TGI in the experiment with SF-539 CNS, in the experiment on SN12C renal and in the experiment with UACC-257 melanoma was > 100 µM each time.
`CN(C)c1ccc(N=C2C=CC(=O)c3ccccc32)cc1`: the GI50 was 5.06 µM in the experiment on HOP-92 NSCLC; 3.62 µM with HT29 colon; 1.78 µM with LOX IMVI melanoma; 1.6 µM in the experiment on MALME-3M melanoma; 3.71 µM in the experiment on OVCAR-8 ovarian; 2.92 µM in the experiment on RPMI-8226 leukemia. Also, the values for the GI50 in the experiment on SF-539 CNS, in the experiment on SN12C renal and with UACC-257 melanoma were 3.11 µM, 2.54 µM and 2.21 µM, respectively. Besides, the TGI stood at 18.7 µM in the experiment with HOP-92 NSCLC; 12.2 µM in the experiment on HT29 colon; 4.13 µM with LOX IMVI melanoma; 3.75 µM with MALME-3M melanoma; 18.2 µM with OVCAR-8 ovarian; 19.7 µM in the experiment with RPMI-8226 leukemia. For the same molecule, the TGI in the experiment on SF-539 CNS worked out at 11.4 µM; in the experiment with SN12C renal it was 9.28 µM; with UACC-257 melanoma it was 5.45 µM.
`CCOC(=O)C(C(O)c1ccc([N+](=O)[O-])cc1)P(=O)(OCC)OCC` (stereo not drawn): the TGI in the experiment on EKVX NSCLC is > 100 µM; in the experiment with HOP-92 NSCLC, 99.5 µM; in the experiment with HT29 colon, > 100 µM; with LOX IMVI melanoma, > 100 µM; with MALME-3M melanoma, > 100 µM; with OVCAR-8 ovarian it was > 100 µM. Also, the TGI with RPMI-8226 leukemia, with SF-539 CNS and in the experiment with SN12C renal was > 100 µM throughout.
Regarding `COc1ccc2nc(NC(=O)C(=O)NNC(=O)c3ccncc3)sc2c1`, the TGI with EKVX NSCLC, in the experiment on HOP-92 NSCLC, with HT29 colon, with LOX IMVI melanoma, in the experiment with MALME-3M melanoma and in the experiment on OVCAR-8 ovarian was > 100 µM in each case. In addition, the TGI with SF-539 CNS, with SN12C renal and in the experiment with UACC-257 melanoma was > 100 µM in each case.
On to `Cc1ccccc1C1CC(c2ccccc2)=NO1` (stereo not drawn), for which the TGI in the experiment with EKVX NSCLC, in the experiment on HOP-92 NSCLC, with HT29 colon, in the experiment with MALME-3M melanoma, in the experiment with OVCAR-8 ovarian and in the experiment on RPMI-8226 leukemia was > 100 µM in each case. Besides, the TGI with SF-539 CNS, with SN12C renal and in the experiment with UACC-257 melanoma was > 100 µM throughout.
In the case of `CCOC1CC2OC(=O)C1C=C2C(=O)OC` (stereo not drawn), the TGI was > 100 µM in the experiment on EKVX NSCLC; 73.1 µM in the experiment with HOP-92 NSCLC; > 100 µM in the experiment with HT29 colon; > 100 µM in the experiment with LOX IMVI melanoma; 38.5 µM in the experiment on MALME-3M melanoma; 53.9 µM in the experiment on RPMI-8226 leukemia. Further, the TGI was 68.4 µM in the experiment with SF-539 CNS and 74.2 µM in the experiment with UACC-257 melanoma.
Take `CCOCc1cc(=O)c2c(OC)cc3c(c2o1)CCC(C)(C)O3`: the TGI with EKVX NSCLC, in the experiment with HOP-92 NSCLC, in the experiment with HT29 colon, with LOX IMVI melanoma, with MALME-3M melanoma and in the experiment with OVCAR-8 ovarian was > 100 µM each time. Moreover, the TGI in the experiment on SF-539 CNS, in the experiment on SN12C renal and with UACC-257 melanoma was > 100 µM throughout.
`CCN(Cc1ccc(F)cc1)c1ccc(CO)c(OC)c1`: the GI50 in the experiment on HOP-92 NSCLC is 7.29 µM; in the experiment with HT29 colon, 24 µM; in the experiment with LOX IMVI melanoma, 27.8 µM; in the experiment with MALME-3M melanoma, 3.21 µM; with OVCAR-8 ovarian it was 19.2 µM; in the experiment with RPMI-8226 leukemia, 15.9 µM. Besides, the GI50 in the experiment with SF-539 CNS is 45.1 µM; in the experiment on SN12C renal it was 21.9 µM; in the experiment with UACC-257 melanoma, 8.85 µM. The TGI is 37.2 µM with HOP-92 NSCLC; > 67.5 µM in the experiment with HT29 colon; > 100 µM with LOX IMVI melanoma; 14.3 µM in the experiment on MALME-3M melanoma; > 64.5 µM in the experiment on OVCAR-8 ovarian; 50.5 µM in the experiment with RPMI-8226 leukemia. Also, the TGI with SF-539 CNS is > 100 µM; in the experiment on SN12C renal, > 100 µM; in the experiment on UACC-257 melanoma, 42.7 µM.
In the case of `c1ccc2c(NCCCCCCNc3cccc4ccccc34)cccc2c1`, the TGI in the experiment with EKVX NSCLC, with HOP-92 NSCLC, in the experiment with HT29 colon, in the experiment with MALME-3M melanoma, with OVCAR-8 ovarian and with RPMI-8226 leukemia was > 100 µM each time. Moreover, the TGI in the experiment on SF-539 CNS, in the experiment with SN12C renal and in the experiment on UACC-257 melanoma was > 100 µM each time.
For the molecule `Cc1ccc(NC(=O)OCC(COc2ccc(Cl)cc2Cl)OC(=O)Nc2ccc(C)cc2)cc1` (stereo not drawn), the TGI with EKVX NSCLC was > 100 µM; in the experiment on HOP-92 NSCLC, > 100 µM; with HT29 colon, > 100 µM; in the experiment on MALME-3M melanoma, > 100 µM; in the experiment with OVCAR-8 ovarian, 39.3 µM; in the experiment on RPMI-8226 leukemia, > 100 µM. For the same molecule, the TGI in the experiment on SF-539 CNS, with SN12C renal and in the experiment with UACC-257 melanoma was > 100 µM in each case.
As to `CCCCN(CCCC)CCCn1cnc2ncccc2c1=O`, the TGI in the experiment on EKVX NSCLC, in the experiment with HOP-92 NSCLC, in the experiment on HT29 colon, in the experiment on LOX IMVI melanoma, with MALME-3M melanoma and in the experiment on OVCAR-8 ovarian was > 100 µM throughout. Further, the TGI with SF-539 CNS and in the experiment with SN12C renal was > 100 µM each time.
On to `COc1ccc2c(c1OC(C)=O)C1=CC(=O)CCC13CCNC3C2` (stereo not drawn), for which the TGI in the experiment with EKVX NSCLC, in the experiment with HOP-92 NSCLC, with HT29 colon, in the experiment on LOX IMVI melanoma, in the experiment with MALME-3M melanoma and in the experiment with OVCAR-8 ovarian was > 100 µM in each case. Besides, the TGI in the experiment on RPMI-8226 leukemia, with SN12C renal and in the experiment with UACC-257 melanoma was > 100 µM each time.
`COC[C@H](C)N=CN1CCc2ccccc2C1(Cc1ccccc1)Cc1ccccc1`: the TGI in the experiment with EKVX NSCLC was 92.6 µM; with HOP-92 NSCLC it was 29.8 µM; with HT29 colon, 20.1 µM; in the experiment on MALME-3M melanoma, 24.7 µM; in the experiment on OVCAR-8 ovarian, 28.8 µM; in the experiment with RPMI-8226 leukemia, 38.9 µM. The TGI in the experiment with SF-539 CNS is 33.6 µM; in the experiment with SN12C renal it was 23.8 µM; in the experiment on UACC-257 melanoma it was 28.3 µM.
